Source: the NIST ThermoML archive (doi:10.1016/j.tca.2008.05.004)

Conditions: 101.33 kPa, Crystal; for molar entropy: Small (less than 1 g) adiabatic calorimetry

O=P([O-])([O-])[O-].[La+3] [lanthanum orthophosphate]
Conditions	molar entropy [J/K/mol]
2 K	0.00041
4 K	0.00372
6 K	0.01262
8 K	0.0291
10 K	0.0561
12 K	0.09746
14 K	0.1576
16 K	0.2412
18 K	0.3527
20 K	0.4961
25 K	1.015
30 K	1.776
35 K	2.783
40 K	4.024
45 K	5.479
50 K	7.119
60 K	10.84
70 K	14.97
80 K	19.34
90 K	23.86
100 K	28.43
110 K	33.01
120 K	37.56
130 K	42.08
140 K	46.55
150 K	50.59
160 K	55.29
170 K	59.57
180 K	63.77
190 K	67.91
200 K	71.98
210 K	75.99
220 K	79.93
230 K	83.81
240 K	87.62
250 K	91.37
260 K	95.06
270 K	98.69
280 K	102.3
290 K	105.8
300 K	109.2
320 K	116
340 K	122.5
360 K	128.8
373 K	132.9
400 K	141
450 K	155.1
500 K	168.2
550 K	180.3
600 K	191.7
650 K	202.4
700 K	212.6
750 K	222.1
800 K	231.3
850 K	240
900 K	248.3
950 K	256.3
1000 K	263.9
1050 K	271.3
1100 K	278.5
1150 K	285.4
1200 K	292.1
1250 K	298.6
1300 K	305
1350 K	311.1
1400 K	317.1
1450 K	323
1500 K	328.7
1550 K	334.3
1600 K	339.8

Conditions	mass density [kg/m3]
293 K, X-ray diffraction	5076
